From patent US12414960B2, “Analogues of oleuropein and oleacein and uses thereof” (Attica Sciences Ltd., priority 2020, dated 2025)

Columns and labels:
[1] = tested on: MCF-10A non-tumorigenic mammary epithelial cells; assay: Cell Glo luminescence cell growth assay, MCF-10A normal cells; type: cell-based, human
Description: The CellTiter-Glo® Luminescent Cell Viability Assay (Promega Corporation; Madison, WI) is a homogeneous method of determining the number of viable cells in culture based on quantitation of the ATP present, an indicator of metabolically active cells. The homogeneous assay procedure involves adding the single reagent (CellTiter-Glo® Reagent) directly to cells cultured in serum-supplemented medium. The homogeneous “add-mix-measure” format results in cell lysis and generation of a luminescent signal proportional to the amount of ATP present. The amount of ATP is directly proportional to the number of cells present in culture.
Cancer cells (3,000 cells/well) were harvested in a 96-well plate. Then, the cancer cells were treated with GS compounds and incubated for 24 hours. The MT Cell Viability Substrate, NanoLuc® Enzyme and cell culture medium was equilibrated to 37° C. The 2× RealTime-Glo™ reagent was prepared by diluting the MT Cell Viability Substrate and NanoLuc® Enzyme in 37° C. cell culture medium to a 2× concentration for each reagent. […] The cells were kept for ˜20 minutes in the cell culture incubator and then luminescence was measured by using a plate-reading luminometer. […]
The effects of exemplary compounds on cancer cell lines and one non-tumorigenic cell line (control) were investigated using a high throughput screening assay. More specifically, the effects of the GS compounds on cell growth was evaluated by the XTT assay for cell lines HepG2, HeLa, MCF7 ER+, MDA-MB-231, and MKN-45, and by the Cell Glo luminescence assay for cell lines MIA PaCa-2, HCT-116, MCF-10A, and PANC-1. […]
The effect of GS27 on normal cell growth was evaluated using the MCF-10A cell line. […]
GS27, NDI-091143 and Nexletol (10 μM) were used to treat normal epithelial cells MCF-10A cells. […] Forty-eight hours post-treatment, the growth of MCF-10A cells was evaluated by CellTiter-Glo® Luminescent Cell Viability Assay, as discussed in Example 29.

[2] = tested on: HepG2 liver cancer tumor; assay: HepG2 xenograft mouse model; type: in vivo, nu/nu mice; settings: 20 mg/kg i.p. every 5 days, until 20 days post-treatment
Experimental: The effect of GS27 on liver cancer tumor growth in mice was evaluated in a HepG2 xenograft mouse model. HepG2 is a human liver cancer cell line, obtained from ATCC (cat. No HB-8065). Since hepatocellular carcinoma is often treated with the chemotherapeutic agent doxorubicin and embolization, results were compared to those obtained with doxorubicin.
Xenograft tumors were generated by injecting HepG2 liver cancer cells (2.5×10^6) into the right flank of female nu/nu mice (Charles River Laboratories). All mice developed tumors in 10 days with size of approximately 100 mm3. For each experiment, mice were randomly distributed into equal groups (4 mice per group) that were untreated, or treated by intraperitoneal injections every 5 days with 20 mg/kg GS27 or doxorubicin. Tumor volume (average, SD) was evaluated until 20 days post-treatment.

[3] = tested on: HeLa cervical cancer cells; assay: XTT cell growth assay, HeLa; type: cell-based, human; settings: Homo sapiens, HeLa, 24 h, NS = not statistically significant, read-out: Effectiveness to suppress HeLa cell growth (cell growth inhibition)
Method in brief: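 HeLa cells in DMEM were plated and incubated 24 h, then exposed 24 h to compound at 5, 10 or 50 μM in serum-free DMEM. After 4 h with XTT reagent, formazan absorbance was read at 450 nm (630 nm reference); serum-free medium served as negative control.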

[4] = tested on: MCF-7 ER+ breast cancer cells; assay: XTT cell growth assay, MCF-7 ER+; type: cell-based, human; settings: NS = not statistically significant; for inhibition at 50 µM: Homo sapiens, MCF7, 24 h, read-out: Effectiveness to suppress MCF7 cell growth (cell growth inhibition)
Description: The XTT assay is used to measure cellular metabolic activity as an indicator of cell viability, proliferation and cytotoxicity. This non-radioactive, colorimetric assay system was first described by Scudiero, et al. in 1988 (Paull, Kenneth D. et al., J Heterocycl Chem, 1988, 25: 911-914; Scudiero, Dominic A. et al., Cancer Res, 1988, 48: 4827-4833) and improved in subsequent years by several other investigators (Weislow, Owen S. et al., J Natl Cancer Inst, 1989, 81(8): 577-586; Roehm, N. W. et al., J Immunol Methods, 1991, 142: 257-265).
The XTT assay is based on the reduction of a yellow tetrazolium salt (sodium 3′-[1-(phenylaminocarbonyl)-3,4-tetrazolium]-bis (4-methoxy6-nitro) benzene sulfonic acid hydrate or XTT) to an orange formazan dye by metabolically active cells (FIG. 8). The formazan dye formed is soluble in aqueous solutions and is directly quantified using a scanning multiwell spectrophotometer (ELISA reader). An increase in number of living cells results in an increase in the overall activity of mitochondrial dehydrogenases in the sample. This increase directly correlates to the amount of orange formazan formed, as monitored by the absorbance. Reduced number of living cells leads to reduced metabolism of quaternary salt and therefore reduced absorption.
Cell viability was assessed using the XTT assay kit (Roche, Mannheim, Germany) as described previously (Kouka, Paraskevi et al., Oxid Med Cell Longev. 2019, Article ID 1870965). Briefly, cancer cells per well were cultured in a 96-well plate in Dulbecco's modified Eagle's medium (DMEM). Following a 24 h incubation, 5, 10 and 50 μM of the tested GS compound was diluted in a serum-free DMEM and administered for 24 h. Subsequently, 50 μL of the XTT reagent (50:1) was added to each well. After 4 h of incubation, the absorbance was monitored at 450 nm and also at 630 nm as a reference wavelength in a BioTek ELx800 microplate reader (BioTek Instruments Inc., Winooski, VT, USA). As a negative control, samples containing serum-free DMEM only were used.
MCF-7 ER+ is a human breast cancer cell line isolated in 1970 from a person. Prior to MCF-7, it was not possible for cancer researchers to obtain a mammary cell line that was capable of living longer than a few months.
The effects of exemplary compounds on cancer cell lines and one non-tumorigenic cell line (control) were investigated using a high throughput screening assay. More specifically, the effects of the GS compounds on cell growth was evaluated by the XTT assay for cell lines HepG2, HeLa, MCF7 ER+, MDA-MB-231, and MKN-45, and by the Cell Glo luminescence assay for cell lines MIA PaCa-2, HCT-116, MCF-10A, and PANC-1.

[5] = tested on: MDA-MB-231 triple negative breast cancer cells; assay: XTT cell growth assay, MDA-MB-231; type: cell-based, human; settings: Homo sapiens, MDA-MB-231, 24 h, NS = not statistically significant, read-out: Effectiveness to suppress MDA-MB-231 cell growth (cell growth inhibition)
Method in brief: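 Cells grown 24 h in DMEM, then exposed 24 h to 5, 10 and 50 μM compound in serum-free DMEM. Viability read by XTT reduction to formazan after 4 h, absorbance at 450 nm with 630 nm reference; serum-free DMEM alone as negative control.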

[6] = after olive oil consumption, literature; cited from earlier work
[7] = tested on: LNCaP prostate cancer cells; settings: literature; cited from earlier work
[8] = tested on: IL-6; assay: ELISA of IL-6 in PMA/LPS-treated THP-1 cells; type: cell-based, human; settings: THP-1, PMA then LPS 100 ng/ml 24 hours, 5 uM compound added 2 hours before LPS
Experimental: (§1) Human monocytes (THP-1, ATCC) were cultured in RPMI 1640 media supplemented with HEPES buffer (10 mM), sodium pyruvate (1 mM), glucose (4.5 g/L), fetal bovine serum (10%), penicillin (100 U/mL), streptomycin (100 μg/mL), and 2-mercaptoethanol (0.05 mM). THP-1 cells were treated with PMA (100 ng/ml) for 48 hours and then washed and rested for 24 hours in PMA-free media. These cells were treated with LPS (100 ng/ml) for 24 hours in the presence or absence of 5 uM of […] compounds (added 2 hours before LPS). Cell culture supernatants were collected and IL-1β (cat. No DLB50, R&D Systems), TNF-α (cat. no. DTA00D, R&D Systems) and IL-6 (cat. No D6050, R&D Systems) protein levels were evaluated by ELISA assay.

[9] = tested on: pACLY (S455); assay: ELISA of pACLY (S455) / ACLY enzymatic activity in PANC-1 cells; type: cell-based, human; settings: 5 μM
Experimental: ELISA assay was used to evaluate the effect of GS compounds on protein activity levels in PANC-1 cancer cells. PANC-1 cells were serum-starved overnight and then treated with rIGF1 (100 ng/mL) for 24 hours, with or without GS27 (5 μM). The levels of the following proteins were evaluated by ELISA assay: a) p70 S6 (T389) (cat no. 54164C, Cell Signaling); b) pAKT (S473), (cat no. 80895, Cell Signaling); c) pACLY (S455), (cat no. okag1672, Avivasysbio); d) pAMPK (T172) (cat no. 7959C, Cell Signaling) and e) p65/NFKB (S536), (cat no. 7173, Cell Signaling).
PANC-1 is a human pancreatic ductal adenocarcinoma cell line derived from the carcinoma of a person.
The molecular mechanism of action of GS27, a compound that has exerted potent anti-cancer activity in different cancer cell lines including pancreatic cancer cells, was investigated. Oleacein has been implicated to have anti-inflammatory and metabolic effects, thus the potential effects of GS27 in different metabolic and inflammatory pathways were evaluated. Specifically, the protein levels of p70 S6 (T389), pAKT (S473), pACLY (S455), pAMPK (T172) and p65/NFKB (S536) were evaluated by ELISA assay in PANC-1 pancreatic cancer cells treated with 5 μM GS27. GS27 reduced p70 S6 and AKT phosphorylation levels, while it increased AMPK phosphorylation.
The effects of different GS compounds on ACLY enzymatic activity were evaluated by ELISA assay in PANC-1 pancreatic cancer cells. […] This finding is unexpected, since GS21 has a very similar structure with GS27, with the only difference being the presence of an oxygen atom in ester GS21 instead of a sulfur atom in thioester GS27.

[10] = tested on: IL-1β; assay: ELISA of IL-1β in PMA/LPS-treated THP-1 cells; type: cell-based, human; settings: THP-1, PMA then LPS 100 ng/ml 24 hours, 5 uM compound added 2 hours before LPS
Experimental: as §1

[11] = Deoxyribose degradation assay (hydroxyl radical scavenging); type: biochemical; settings: NS = not statistically significant
Experimental: The hydroxyl radical (OH.) is an extremely reactive in biological systems and has been implicated as highly damaging species in free radical pathology, capable of damaging biomolecules of the living cells. These radical combines with nucleotides in DNA and cause strand breakage leading to carcinogenesis, mutagenesis and cytotoxicity. Hydroxyl radical (OH.) scavenging capacity of an extract is directly related to its antioxidant activity.
The effect of extracts on hydroxyl radicals was assayed by using the deoxyribose method. 2-Deoxyribose is degraded on exposure to hydroxyl radicals generated by Fenton's reaction. The ability to neutralize the OH. is estimated as the rate of inhibition of the oxidation of 2-deoxyribose by the OH. (FIG. 5).
The measurement of the hydroxyl radical scavenging activity was evaluated for each of the GS compound by evaluating the pink chromogen absorption at 532 nm by spectrophotometry as described previously (Perjesi, Pal et al., Open Med Chem J., 2011, 5: 61-67

[12] = tested on: TNF-α; assay: ELISA of TNF-α in PMA/LPS-treated THP-1 cells; type: cell-based, human; settings: THP-1, PMA then LPS 100 ng/ml 24 hours, 5 uM compound added 2 hours before LPS
Experimental: as §1

[13] = target: ACLY (Homo sapiens, UniProt P53396); settings: description of the Tocris compound; read-out: IC50 as ACLY inhibitor; cited from earlier work
Sequence of ACLY (P53396 whole entry): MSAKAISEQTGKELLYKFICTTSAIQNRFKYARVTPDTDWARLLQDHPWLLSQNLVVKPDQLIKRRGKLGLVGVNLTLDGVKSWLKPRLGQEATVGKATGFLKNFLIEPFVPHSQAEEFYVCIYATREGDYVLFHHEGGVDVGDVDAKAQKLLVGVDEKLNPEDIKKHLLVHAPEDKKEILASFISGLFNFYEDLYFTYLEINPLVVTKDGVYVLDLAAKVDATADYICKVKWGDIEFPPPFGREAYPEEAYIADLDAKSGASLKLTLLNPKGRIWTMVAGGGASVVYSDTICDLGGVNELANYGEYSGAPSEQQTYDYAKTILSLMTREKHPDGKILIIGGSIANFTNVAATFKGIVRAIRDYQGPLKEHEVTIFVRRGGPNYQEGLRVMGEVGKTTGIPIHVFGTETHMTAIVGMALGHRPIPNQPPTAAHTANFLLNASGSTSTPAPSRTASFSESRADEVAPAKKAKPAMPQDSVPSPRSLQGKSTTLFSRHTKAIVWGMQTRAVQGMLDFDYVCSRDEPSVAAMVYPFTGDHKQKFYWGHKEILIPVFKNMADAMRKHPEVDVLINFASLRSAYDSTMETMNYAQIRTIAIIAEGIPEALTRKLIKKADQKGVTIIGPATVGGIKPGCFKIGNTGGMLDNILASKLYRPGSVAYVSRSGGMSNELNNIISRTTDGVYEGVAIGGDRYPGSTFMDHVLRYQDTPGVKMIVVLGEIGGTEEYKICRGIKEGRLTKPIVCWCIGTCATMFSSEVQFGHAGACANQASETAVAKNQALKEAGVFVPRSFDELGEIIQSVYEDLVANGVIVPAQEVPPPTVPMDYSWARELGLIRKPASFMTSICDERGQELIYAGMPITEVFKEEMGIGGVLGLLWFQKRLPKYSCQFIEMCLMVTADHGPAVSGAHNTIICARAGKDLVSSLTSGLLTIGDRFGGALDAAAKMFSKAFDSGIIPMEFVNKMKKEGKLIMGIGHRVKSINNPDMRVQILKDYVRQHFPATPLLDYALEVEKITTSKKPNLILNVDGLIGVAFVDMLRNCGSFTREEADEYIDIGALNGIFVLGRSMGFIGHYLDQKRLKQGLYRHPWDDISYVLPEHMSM

CC(C)(CCCCCC(O)CCCCCC(C)(C)C(=O)O)C(=O)O [Nexletol, reference compound]
effect on MCF-10A normal cell growth ([1]; 10 μM, forty-eight hours post-treatment): inhibitory effect

COc1cccc2c1C(=O)c1c(O)c3c(c(O)c1C2=O)C[C@@](O)(C(=O)CO)C[C@@H]3O[C@H]1C[C@H](N)[C@H](O)[C@H](C)O1 [doxorubicin, reference compound]
reduction in the tumor size, HepG2 liver cancer [2]: 13%

C/C=C(/C=O)[C@@H](CC=O)CC(=O)OC [GS16, (3S,4E)-4-Formyl-3-(2-oxoethyl)hex-4-enoic acid methyl ester]
inhibition at 50 µM [3]: 72.6%
inhibition at 50 µM [4]: 26.6%
inhibition at 50 µM [5]: 35%
inhibition at 10 µM ([1]; Homo sapiens, MCF-10A, 10 uM, 24 h, normal cells, safety control, NS = not statistically significant, read-out: Effectiveness to suppress MCF10A cell growth (cell growth inhibition)): 10.1%

OCCc1ccc(O)cc1 [tyrosol]
time of peak plasma levels after ingestion [6]: 1 h

OCCc1ccc(O)c(O)c1 [Hydroxytyrosol]
time of peak plasma levels after ingestion [6]: 1 h

CNC(=O)c1ccc(N2C(=S)N(c3ccc(C#N)c(C(F)(F)F)c3)C(=O)C2(C)C)cc1F [enzalutamide]
concentration found to reduce LNCaP prostate cancer cell growth [7]: 10 µM

C/C=C(/C=O)[C@@H](CC=O)CC(=O)OCc1cc2ccccc2[nH]1 [GS25, (3S,4E)-4-formyl-3-(2-oxoethyl)-4-hexenoic acid (1H-indol-2-yl)methyl ester]
IL-6 protein levels [8]: effective for reducing
ACLY enzymatic activity (ELISA) [9]: small effect
Effectiveness to suppress MCF7 cell growth (cell growth inhibition) ([4]; 50 uM, 24 h): best efficacy
inhibition at 50 µM [4]: 88.4%
IL-1β protein levels [10]: reducing substantially
Deoxyribose Degradation Assay IC50 [11]: 16.2 μg extract/mL
TNF-α protein levels [12]: better effect on the suppression

COc1ccc(-c2ccccc2)cc1NS(=O)(=O)c1cc(Cl)cc(Cl)c1O [BMS303141]
IC50 [13]: 130 nM
